Ends that are not written are not given here.
Columns and labels:
Type in all cases: binding
DLG4_1 PDZ = DLG4_1 PDZ (Homo sapiens, UniProt P78352); test: Holdup assay; settings: composite holdup affinity; 0.00=below quantification threshold; read-out: COMP pKd (converted)
DLG4_2 PDZ = DLG4_2 PDZ (Homo sapiens, UniProt P78352); test: Holdup assay; settings: composite holdup affinity; 0.00=below quantification threshold; read-out: COMP pKd (converted)
GRIP1_2 PDZ = GRIP1_2 PDZ (Homo sapiens, UniProt Q9Y3R0); test: Holdup assay; settings: composite holdup affinity; 0.00=below quantification threshold; read-out: COMP pKd (converted)
SNTG2 PDZ = SNTG2 PDZ (Homo sapiens, UniProt Q9NY99); test: Holdup assay; settings: composite holdup affinity; 0.00=below quantification threshold; read-out: COMP pKd (converted)
DLG3_3 PDZ = DLG3_3 PDZ (Homo sapiens, UniProt Q92796); test: Holdup assay; settings: composite holdup affinity; 0.00=below quantification threshold; read-out: COMP pKd (converted)
PTPN3 PDZ = PTPN3 PDZ (Homo sapiens, UniProt P26045); test: Holdup assay; settings: composite holdup affinity; 0.00=below quantification threshold; read-out: COMP pKd (converted)
PDZRN4_1 PDZ = PDZRN4_1 PDZ (Homo sapiens, UniProt Q6ZMN7); test: Holdup assay; settings: composite holdup affinity; 0.00=below quantification threshold; read-out: COMP pKd (converted)
ARHGEF12 PDZ = ARHGEF12 PDZ (Homo sapiens, UniProt Q9NZN5); test: Holdup assay; settings: composite holdup affinity; 0.00=below quantification threshold; read-out: COMP pKd (converted)
MPP1 PDZ = MPP1 PDZ (Homo sapiens, UniProt Q00013); test: Holdup assay; settings: sheet PPI_convert; read-out: affinity to PDZ MPP1 (converted)
MAGI2_2 PDZ = MAGI2_2 PDZ (Homo sapiens, UniProt Q86UL8); test: Holdup assay; settings: composite holdup affinity; 0.00=below quantification threshold; read-out: COMP pKd (converted)
LAP2 PDZ = LAP2 PDZ (Homo sapiens, UniProt Q96RT1); test: Holdup assay; settings: composite holdup affinity; 0.00=below quantification threshold; read-out: COMP pKd (converted)
APBA1_2 PDZ = APBA1_2 PDZ (Homo sapiens, UniProt Q02410); test: Holdup assay; settings: composite holdup affinity; 0.00=below quantification threshold; read-out: COMP pKd (converted)
MAGI1_2 PDZ = MAGI1_2 PDZ (Homo sapiens, UniProt Q96QZ7); test: biochemical; settings: composite holdup affinity; 0.00=below quantification threshold; read-out: COMP pKd (converted)
SCRIB_3 PDZ = SCRIB_3 PDZ (Homo sapiens, UniProt Q14160); test: Holdup assay; settings: composite holdup affinity; 0.00=below quantification threshold; read-out: COMP pKd (converted)
DLG3_2 PDZ = DLG3_2 PDZ (Homo sapiens, UniProt Q92796); test: Holdup assay; settings: composite holdup affinity; 0.00=below quantification threshold; read-out: COMP pKd (converted)
DLG1_2 PDZ = DLG1_2 PDZ (Homo sapiens, UniProt Q12959); test: Holdup assay; settings: composite holdup affinity; 0.00=below quantification threshold; read-out: COMP pKd (converted)
MAGI2_5 PDZ = MAGI2_5 PDZ (Homo sapiens, UniProt Q86UL8); test: Holdup assay; settings: composite holdup affinity; 0.00=below quantification threshold; read-out: COMP pKd (converted)
DLG2_3 PDZ = DLG2_3 PDZ (Homo sapiens, UniProt Q15700); test: Holdup assay; settings: composite holdup affinity; 0.00=below quantification threshold; read-out: COMP pKd (converted)
SNTA1 PDZ = SNTA1 PDZ (Homo sapiens, UniProt Q13424); test: Holdup assay; settings: composite holdup affinity; 0.00=below quantification threshold; read-out: COMP pKd (converted)
SNX27 PDZ = SNX27 PDZ (Homo sapiens, UniProt Q96L92); test: Holdup assay; settings: composite holdup affinity; 0.00=below quantification threshold; read-out: COMP pKd (converted)
GIPC2 PDZ = GIPC2 PDZ (Homo sapiens, UniProt Q8TF65); test: Holdup assay; settings: composite holdup affinity; 0.00=below quantification threshold; read-out: COMP pKd (converted)
DLG2_2 PDZ = DLG2_2 PDZ (Homo sapiens, UniProt Q15700); test: Holdup assay; settings: composite holdup affinity; 0.00=below quantification threshold; read-out: COMP pKd (converted)
GIPC1 PDZ = GIPC1 PDZ (Homo sapiens, UniProt O14908); test: Holdup assay; settings: sheet PPI_convert; read-out: affinity to PDZ GIPC1 (converted)
From the text: Supplement 41467_2022_33018_MOESM4_ESM.xlsx, sheet "PPI_convert" | column: GIPC1

LIN7C PDZ = LIN7C PDZ (Homo sapiens, UniProt Q9NUP9); test: Holdup assay; settings: composite holdup affinity; 0.00=below quantification threshold; read-out: COMP pKd (converted)
SCRIB_1 PDZ = SCRIB_1 PDZ (Homo sapiens, UniProt Q14160); test: Holdup assay; settings: composite holdup affinity; 0.00=below quantification threshold; read-out: COMP pKd (converted)
DLG4_3 PDZ = DLG4_3 PDZ (Homo sapiens, UniProt P78352); test: Holdup assay; settings: composite holdup affinity; 0.00=below quantification threshold; read-out: COMP pKd (converted)
NHERF3_1 PDZ = NHERF3_1 PDZ (Homo sapiens, UniProt Q5T2W1); test: Holdup assay; settings: composite holdup affinity; 0.00=below quantification threshold; read-out: COMP pKd (converted)
PDZD7_3 PDZ = PDZD7_3 PDZ (Homo sapiens, UniProt Q9H5P4); test: Holdup assay; settings: composite holdup affinity; 0.00=below quantification threshold; read-out: COMP pKd (converted)
PDZD2_2 PDZ = PDZD2_2 PDZ (Homo sapiens, UniProt O15018); test: Holdup assay; settings: composite holdup affinity; 0.00=below quantification threshold; read-out: COMP pKd (converted)
DLG1_3 PDZ = DLG1_3 PDZ (Homo sapiens, UniProt Q12959); test: Holdup assay; settings: composite holdup affinity; 0.00=below quantification threshold; read-out: COMP pKd (converted)
RHPN1 PDZ = RHPN1 PDZ (Homo sapiens, UniProt Q8TCX5); test: Holdup assay; settings: composite holdup affinity; 0.00=below quantification threshold; read-out: COMP pKd (converted)
SNTB1 PDZ = SNTB1 PDZ (Homo sapiens, UniProt Q13884); test: Holdup assay; settings: composite holdup affinity; 0.00=below quantification threshold; read-out: COMP pKd (converted)
GOPC PDZ = GOPC PDZ (Homo sapiens, UniProt Q9HD26); test: Holdup assay; settings: composite holdup affinity; 0.00=below quantification threshold; read-out: COMP pKd (converted)
DLG2_1 PDZ = DLG2_1 PDZ (Homo sapiens, UniProt Q15700); test: Holdup assay; settings: sheet PPI_convert; read-out: affinity to PDZ DLG2_1 (converted)
GRIP2_7 PDZ = GRIP2_7 PDZ (Homo sapiens, UniProt Q9C0E4); test: Holdup assay; settings: composite holdup affinity; 0.00=below quantification threshold; read-out: COMP pKd (converted)
MAST2 PDZ = target: T1, MAST2 PDZ (Homo sapiens, UniProt Q6P0Q8); test: biochemical; settings: composite holdup affinity; 0.00=below quantification threshold; read-out: COMP pKd (converted)
T1 sequence (Q6P0Q8 1104-1192 limits assumed): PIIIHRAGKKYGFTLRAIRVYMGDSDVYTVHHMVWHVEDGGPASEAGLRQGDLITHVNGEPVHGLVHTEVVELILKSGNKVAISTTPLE

DLG1_1 PDZ = DLG1_1 PDZ (Homo sapiens, UniProt Q12959); test: Holdup assay; settings: composite holdup affinity; 0.00=below quantification threshold; read-out: COMP pKd (converted)
FRMPD2_2 PDZ = FRMPD2_2 PDZ (Homo sapiens, UniProt Q68DX3); test: Holdup assay; settings: composite holdup affinity; 0.00=below quantification threshold; read-out: COMP pKd (converted)
FRMPD2_2 PDZ, sequence (Q68DX3 950-1035 limits assumed): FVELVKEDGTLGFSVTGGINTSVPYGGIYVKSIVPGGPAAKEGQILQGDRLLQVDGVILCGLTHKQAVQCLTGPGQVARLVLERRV

GRIP1_2 PDZ, sequence (Q9Y3R0 150-238 limits assumed): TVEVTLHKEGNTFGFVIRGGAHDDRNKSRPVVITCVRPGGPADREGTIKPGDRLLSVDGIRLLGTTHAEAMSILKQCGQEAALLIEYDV
PTPN3 PDZ, sequence (P26045 510-582 limits assumed): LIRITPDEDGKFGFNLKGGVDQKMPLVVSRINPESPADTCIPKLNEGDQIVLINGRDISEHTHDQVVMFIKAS
LAP2 PDZ, sequence (Q96RT1 1321-1410 limits assumed): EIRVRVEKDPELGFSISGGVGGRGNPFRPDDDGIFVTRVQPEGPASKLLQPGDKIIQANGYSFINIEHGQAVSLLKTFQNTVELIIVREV
SNTG2 PDZ, sequence (Q9NY99 73-156 limits assumed): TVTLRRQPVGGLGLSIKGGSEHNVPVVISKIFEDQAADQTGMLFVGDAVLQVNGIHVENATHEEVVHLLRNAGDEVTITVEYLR
SCRIB_3 PDZ, sequence (Q14160 1004-1093 limits assumed): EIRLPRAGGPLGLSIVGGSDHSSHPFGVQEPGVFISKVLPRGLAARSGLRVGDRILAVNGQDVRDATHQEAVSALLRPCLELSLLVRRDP
DLG2_1 PDZ, sequence (Q15700 98-184): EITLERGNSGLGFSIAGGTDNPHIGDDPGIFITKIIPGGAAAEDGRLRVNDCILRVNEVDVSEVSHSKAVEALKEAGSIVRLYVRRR
GIPC1 PDZ, sequence (O14908 133-213 limits assumed): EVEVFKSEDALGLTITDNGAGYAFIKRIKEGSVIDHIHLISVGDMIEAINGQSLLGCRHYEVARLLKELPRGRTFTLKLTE
DLG2_3 PDZ, sequence (Q15700 421-501 limits assumed): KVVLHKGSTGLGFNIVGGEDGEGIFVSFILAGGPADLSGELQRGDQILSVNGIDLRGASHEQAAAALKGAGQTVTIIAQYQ
MAGI2_2 PDZ, sequence (Q86UL8 426-510 limits assumed): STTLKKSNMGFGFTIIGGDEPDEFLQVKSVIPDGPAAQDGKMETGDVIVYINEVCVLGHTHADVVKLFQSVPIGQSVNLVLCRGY
SNTA1 PDZ, sequence (Q13424 87-170 limits assumed): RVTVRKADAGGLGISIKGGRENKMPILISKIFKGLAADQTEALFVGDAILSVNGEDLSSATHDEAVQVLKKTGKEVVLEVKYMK
SCRIB_1 PDZ, sequence (Q14160 728-815 limits assumed): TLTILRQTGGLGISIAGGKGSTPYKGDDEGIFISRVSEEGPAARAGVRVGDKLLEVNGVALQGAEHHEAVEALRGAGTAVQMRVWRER
DLG2_2 PDZ, sequence (Q15700 193-279 limits assumed): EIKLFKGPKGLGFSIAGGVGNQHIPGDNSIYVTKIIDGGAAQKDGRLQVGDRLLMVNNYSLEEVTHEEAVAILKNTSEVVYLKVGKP
MAGI1_2 PDZ, sequence (Q96QZ7 472-554 limits assumed): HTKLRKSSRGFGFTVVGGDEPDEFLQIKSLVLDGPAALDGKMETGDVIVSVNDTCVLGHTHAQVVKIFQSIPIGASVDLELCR
DLG3_3 PDZ, sequence (Q92796 379-465 limits assumed): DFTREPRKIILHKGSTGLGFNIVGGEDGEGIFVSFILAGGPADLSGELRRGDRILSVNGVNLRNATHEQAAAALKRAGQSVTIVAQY
GIPC2 PDZ, sequence (Q8TF65 117-197 limits assumed): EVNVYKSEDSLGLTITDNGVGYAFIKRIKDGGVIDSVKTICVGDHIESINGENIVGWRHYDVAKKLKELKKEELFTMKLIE
GRIP2_7 PDZ, sequence (Q9C0E4 941-1023 limits assumed): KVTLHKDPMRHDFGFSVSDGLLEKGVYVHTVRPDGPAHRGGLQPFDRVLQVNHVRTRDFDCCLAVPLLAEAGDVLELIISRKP
DLG4_3 PDZ, sequence (P78352 313-393 limits assumed): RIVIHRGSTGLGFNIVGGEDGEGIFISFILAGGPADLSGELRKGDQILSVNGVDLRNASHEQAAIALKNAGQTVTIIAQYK
DLG4_1 PDZ, sequence (P78352 65-151): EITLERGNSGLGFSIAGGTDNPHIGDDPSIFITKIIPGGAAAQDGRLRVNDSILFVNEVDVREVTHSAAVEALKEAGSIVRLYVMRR
PDZRN4_1 PDZ, sequence (Q6ZMN7 224-314 limits assumed): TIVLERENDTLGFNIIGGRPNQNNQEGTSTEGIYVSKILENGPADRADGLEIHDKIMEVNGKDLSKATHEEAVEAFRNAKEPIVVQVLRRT
PDZD7_3 PDZ, sequence (Q9H5P4 862-934 limits assumed): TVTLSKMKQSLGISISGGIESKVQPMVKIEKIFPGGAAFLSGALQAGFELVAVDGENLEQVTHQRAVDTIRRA
APBA1_2 PDZ, sequence (Q02410 747-822 limits assumed): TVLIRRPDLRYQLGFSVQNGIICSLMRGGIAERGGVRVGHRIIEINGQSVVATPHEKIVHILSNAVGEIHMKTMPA
NHERF3_1 PDZ, sequence (Q5T2W1 9-90 limits assumed): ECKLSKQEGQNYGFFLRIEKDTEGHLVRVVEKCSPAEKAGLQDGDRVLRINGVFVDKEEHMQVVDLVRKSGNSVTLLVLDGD
RHPN1 PDZ, sequence (Q8TCX5 513-592 limits assumed): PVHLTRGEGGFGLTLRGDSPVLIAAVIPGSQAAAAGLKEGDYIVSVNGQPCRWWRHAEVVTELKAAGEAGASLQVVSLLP
ARHGEF12 PDZ, sequence (Q9NZN5 72-151 limits assumed): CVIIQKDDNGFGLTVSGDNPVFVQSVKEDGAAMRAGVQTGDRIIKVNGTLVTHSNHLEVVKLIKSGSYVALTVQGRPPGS
LIN7C PDZ, sequence (Q9NUP9 93-175 limits assumed): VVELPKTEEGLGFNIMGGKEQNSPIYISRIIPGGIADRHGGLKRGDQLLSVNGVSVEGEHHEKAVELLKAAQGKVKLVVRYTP
PDZD2_2 PDZ, sequence (O15018 334-419 limits assumed): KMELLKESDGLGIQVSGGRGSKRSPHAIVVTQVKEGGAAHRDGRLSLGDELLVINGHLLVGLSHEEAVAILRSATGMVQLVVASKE
DLG4_2 PDZ, sequence (P78352 160-246 limits assumed): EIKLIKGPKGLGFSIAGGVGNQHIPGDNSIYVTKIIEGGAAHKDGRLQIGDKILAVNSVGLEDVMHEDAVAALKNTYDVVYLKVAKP
DLG3_2 PDZ, sequence (Q92796 226-311 limits assumed): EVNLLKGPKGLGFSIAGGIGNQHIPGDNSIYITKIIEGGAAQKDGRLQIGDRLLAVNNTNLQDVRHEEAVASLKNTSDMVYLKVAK
SNTB1 PDZ, sequence (Q13884 112-195 limits assumed): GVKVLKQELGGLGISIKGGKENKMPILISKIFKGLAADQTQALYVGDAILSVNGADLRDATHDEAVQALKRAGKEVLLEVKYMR
MAGI2_5 PDZ, sequence (Q86UL8 920-1010 limits assumed): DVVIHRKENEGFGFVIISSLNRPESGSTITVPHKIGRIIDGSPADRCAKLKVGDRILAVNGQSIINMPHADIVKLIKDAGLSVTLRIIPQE
MPP1 PDZ, sequence (Q00013 71-152 limits assumed): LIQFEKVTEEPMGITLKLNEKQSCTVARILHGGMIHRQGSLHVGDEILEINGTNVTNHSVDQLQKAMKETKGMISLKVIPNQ

Sequence	Kd (DLG4_1 PDZ)	Kd (DLG4_2 PDZ)	Kd (GRIP1_2 PDZ)	Kd (SNTG2 PDZ)	Kd (DLG3_3 PDZ)	Kd (PTPN3 PDZ)	Kd (PDZRN4_1 PDZ)	Kd (ARHGEF12 PDZ)	Kd (MPP1 PDZ)	Kd (MAGI2_2 PDZ)	Kd (LAP2 PDZ)	Kd (APBA1_2 PDZ)	Kd (MAGI1_2 PDZ)	Kd (SCRIB_3 PDZ)	Kd (DLG3_2 PDZ)	Kd (DLG1_2 PDZ)	Kd (MAGI2_5 PDZ)	Kd (DLG2_3 PDZ)	Kd (SNTA1 PDZ)	Kd (SNX27 PDZ)	other results
RTRQRNETQV [HPV51-E6]	12.6 µM	10.2 µM	347 µM	60.3 µM	12.3 µM	41.7 µM	69.2 µM	186 µM	1.55 µM	0.219 µM	204 µM	275 µM	1.17 µM	67.6 µM	7.94 µM	7.41 µM	75.9 µM	17.8 µM	58.9 µM	14.1 µM	Kd (GIPC2 PDZ): 234 µM; Kd (DLG2_2 PDZ): 10.7 µM; Kd (GIPC1 PDZ): 7.94 µM; Kd (LIN7C PDZ): 145 µM; Kd (SCRIB_1 PDZ): 27.5 µM; Kd (DLG4_3 PDZ): 17.8 µM; Kd (NHERF3_1 PDZ): 67.6 µM; Kd (PDZD7_3 PDZ): 132 µM; Kd (PDZD2_2 PDZ): 263 µM; Kd (DLG1_3 PDZ): 28.8 µM; Kd (RHPN1 PDZ): 200 µM; Kd (SNTB1 PDZ): 81.3 µM; Kd (GOPC PDZ): 191 µM; Kd (DLG2_1 PDZ): 8.71 µM; Kd (GRIP2_7 PDZ): 331 µM; Kd (MAST2 PDZ): 5.37 µM; Kd (DLG1_1 PDZ): 16.6 µM; Kd (FRMPD2_2 PDZ): 389 µM
RHTTSTETAV [HPV30-E6]	12 µM	3.55 µM	166 µM	21.4 µM	21.9 µM	7.41 µM	29.5 µM	63.1 µM	6.76 µM	9.12 µM	34.7 µM	58.9 µM	40.7 µM	9.55 µM	3.89 µM	2.34 µM	49 µM	16.2 µM	19.1 µM	2.29 µM	Kd (GIPC2 PDZ): 110 µM; Kd (DLG2_2 PDZ): 6.46 µM; Kd (GIPC1 PDZ): 20 µM; Kd (LIN7C PDZ): 64.6 µM; Kd (SCRIB_1 PDZ): 17.4 µM; Kd (DLG4_3 PDZ): 44.7 µM; Kd (NHERF3_1 PDZ): 13.5 µM; Kd (PDZD7_3 PDZ): 79.4 µM; Kd (PDZD2_2 PDZ): 38 µM; Kd (DLG1_3 PDZ): 40.7 µM; Kd (RHPN1 PDZ): 83.2 µM; Kd (SNTB1 PDZ): 7.94 µM; Kd (GOPC PDZ): 72.4 µM; Kd (DLG2_1 PDZ): 14.5 µM; Kd (GRIP2_7 PDZ): 145 µM; Kd (MAST2 PDZ): 3.02 µM; Kd (DLG1_1 PDZ): 11.7 µM; Kd (FRMPD2_2 PDZ): 58.9 µM

From paper PMC9482650, “Quantitative fragmentomics allow affinity mapping of interactomes” (Nature Communications, 2022)
